This is an account of results in US20120301402A1, “RAP1A AS A MARKER FOR CARDIAC ARRHYTHMIA” (NATIONWIDE CHILDREN'S HOSPITAL, INC., priority 2011, published 2012).

In test [1] the test system is isolated ventricular myocytes. Kind of test: After-contractions protocol in isolated ventricular myocytes. It is filed as cell-based, mice. Conditions: 5 s stimulation, counted 40 s after stimulation withdrawn. On the procedure: FIG. 10 provides graphs showing that aftercontractions increase in heterozygous Rap1A myocytes. Further investigation of the spontaneous waves was performed using an “after-contractions” protocol by stimulating for 5 seconds and counting the number of after-contractions that occur 40 seconds after the stimulation is withdrawn. (A) Rap1A-heterozygous myocytes have increased after-contractions compared to control wild-type (WT) myocytes. (B) Inhibition of protein kinase C (PKC) by bisindolylmaleimide I (BIM, 1 μM) increases after-contractions in control wild-type (WT) and Rap1A-heterozygous myocytes. (C) Protein kinase C (PKC) activation by phorbol myristate acetate (PMA, 150 nM) leads to a decrease in after-contractions in Rap1A-heterozygous myocytes. (D) Summary data of WT/Rap1A-heterozygous+/− BIM (Inhibitor) and PMA (Activator). Both drugs were incubated in isolated ventricular myocytes before measurements were taken to activate or inhibit PKC.

Test [2] has as its system isolated Rap1A-heterozygous cardiac myocytes. The conditions noted are these: combination with isoproterenol, waves resumed after washout.
Procedure: Ventricular myocytes were isolated from male C57BL/6 control wild-type (WT) and Rap1A-heterozygous (Rap1a^+/−) mice. Whole hearts were cannulated and hung on a Langendorff apparatus and tissue treated for enzymatic digestion for 3-5 minutes. The ventricles were minced and myocytes were dissociated by trituration. Subsequently, the myocytes were filtered, centrifuged, and used for the studies within 6 hours of isolation. Calcium transients were measured by loading isolated myocytes with fluo 4-AM (10 μM) for 30 min, followed by an additional 30 min for intracellular deesterification. Cell fluorescence was measured by epifluorescence. The intracellular calcium concentration [Ca^2+]i of single cells was measured with excitation at 480±20 nm and emission at 535±25 nm. Data were expressed as ΔF/F0, where F is the fluorescence intensity, and F0 is the intensity at rest. Myocytes were stimulated at 1 Hz. Simultaneous measurement of shortening was also performed using edge detection. Data were expressed as cell shortening (μm). Myocytes were analyzed from 2-3 independent isolations per group.
Myocytes were analyzed from 2-3 independent isolations per group.

Turning to `CN(C)CCCn1cc(C2=C(c3c[nH]c4ccccc34)C(=O)NC2=O)c2ccccc21` [bisindolylmaleimide I], the After-contractions result is “increases” in test [1] (Rap1A-heterozygous myocytes, 1 μM) and “increases” in test [1] (control wild-type (WT) myocytes, 1 μM). Take `Cc1cccc(C)c1OCC(C)N` (stereo not shown) [Mexiletine]: the “After-transients / spontaneous calcium waves” value in test [2] is reported as “rescued”. In the case of `CCCCCCCCCCCCCC(=O)O[C@@H]1[C@@H](C)[C@@]2(O)[C@@H](C=C(CO)C[C@]3(O)C(=O)C(C)=C[C@@H]23)[C@@H]2C(C)(C)[C@]12OC(C)=O` [phorbol myristate acetate], the After-contractions entry in test [1] (Rap1A-heterozygous myocytes, 150 nM) is listed as “decrease”.
